According to patent US8455244B2, “Co-crystallization of ERR-α with a ligand that forms a reversible covalent bond” (Janssen Pharmaceutica N.V., priority 2009, dated 2013):

Columns and labels:
[1] = molecular target: T1, ERR-α (Homo sapiens, UniProt P11474); assay: biochemical; settings: pH 7.9, read-out: ka
T1 sequence (P11474 with tags, fused parts or gaps): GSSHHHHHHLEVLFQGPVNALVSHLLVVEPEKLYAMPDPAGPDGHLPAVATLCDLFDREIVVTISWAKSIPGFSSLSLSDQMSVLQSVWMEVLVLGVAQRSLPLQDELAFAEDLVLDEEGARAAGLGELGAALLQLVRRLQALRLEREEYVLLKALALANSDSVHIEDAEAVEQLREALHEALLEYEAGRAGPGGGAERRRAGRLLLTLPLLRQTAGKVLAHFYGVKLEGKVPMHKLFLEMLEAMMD
Description: To monitor the kinetics of association and dissociation for ligands that formed a complex with ERR-α by forming a covalent bond to Cys325 of ERR-α, LC/MS detection was employed. LC analysis was performed on an Agilent 1100 LC system that was in line with an Agilent MSD TOF for mass detection. Software provided by the vendor was used to deconvolute the ESI positive ion quadrupole time-of-flight spectra. To measure association rates, typically a 1 μM ERR-α solution was mixed with an equal volume of a 2 μM ligand solution. […]
For the apo form of ERR-α, a mass of 27042 was detected, corresponding to an amino acid sequence where the initiator methionine is cleaved followed by N-terminal acetylation.
Association and dissociation rates for ligands were determined by fitting fractional values obtained for the progress of the reaction as a function of time using a single exponential equation progress of reaction=e^−kt
where k is the apparent rate constant. For the dissociation experiments, the reaction is assumed to be first order and dissociation rates, kd, are expressed as s^−1. For the association rates, k^a, the reaction is assumed to be second order and the rates are expressed as M^−1s^−1 by dividing the apparent rate constants by the concentration of the protein determined by experimental conditions (Table 4).

[2] = molecular target: T1, ERR-α; assay: LC/MS dissociation rate with 20-fold excess Compound 2 as competing ligand; assay type: binding; parameters: made in house; host or cells: Spodoptera frugiperda (Sf9) insect cells, baculovirus; settings: ligand 1 μM, ERR-α 0.5 μM, competing ligand 20 μM, 37° C., assumed first order
From the text: The progress of the reaction was also expressed as a fraction of the area observed for the complex of ERR-α and the competing ligand over the sum of total area for the complex of ERR-α with the ligand and the complex of ERR-α with the competing ligand.
where k is the apparent rate constant.

[3] = molecular target: ERR-α (Homo sapiens, UniProt P11474); assay: biochemical
Description: For TR-FRET measurements, the reaction was buffered in 25 mM Tris pH 8, 2.5 mM Hepes, 20 mM KCl, 1 mM DTT, and 0.05 mg/mL BSA (-lipids). […] Reactions were allowed to reach equilibrium at 25° C. for 4-18 hours before collecting data on the Analyst from LJL Biosystems (Molecular Devices Sunnyvale, Calif.).
Target sequence in this assay (P11474 with tags, fused parts or gaps limits assumed): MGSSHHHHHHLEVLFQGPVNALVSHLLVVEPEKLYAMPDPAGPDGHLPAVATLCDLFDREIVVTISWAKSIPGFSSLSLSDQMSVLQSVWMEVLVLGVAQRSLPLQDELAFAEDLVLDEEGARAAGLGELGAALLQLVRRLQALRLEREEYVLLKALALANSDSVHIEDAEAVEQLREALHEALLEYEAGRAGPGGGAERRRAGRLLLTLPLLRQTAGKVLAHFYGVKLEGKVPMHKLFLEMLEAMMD

SMILES | kon [1] [M⁻¹ s⁻¹] | kd [2] [s⁻¹] | EC50 [3] [nM]
COc1cc(/C=C2\SC(=O)NC2=O)ccc1Oc1ccc(C#N)cc1C(F)(F)F [Compound 1] | 6600 | 1.1e-05 | –
COC(=O)c1ccc(Oc2ccc(/C=C3\SC(=O)NC3=O)cc2OC)c(C(F)(F)F)c1 [Compound 2] | – | – | 11
COc1cc(/C=C2\SC(N3CCN(C)CC3)=NC2=O)ccc1Oc1ccc(C#N)cc1C(F)(F)F [Compound 3] | – | 1.53e-05 | –
CN1CCN(C2=NC(=O)/C(=C/c3ccc(Oc4ccc(C#N)cc4C(F)(F)F)c(F)c3)S2)CC1 [Compound 4] | – | 2.19e-05 | –
COc1cc(/C=C2\SC(N)=NC2=O)ccc1Oc1ccc(C#N)cc1C(F)(F)F [Compound 5] | – | 2.05e-05 | –
